# Read-outs that look alike come from different tables or passages of the source.
# Target: T1, human mAChR M1 (Homo sapiens, UniProt P11229)
# T1 sequence (P11229 1-460): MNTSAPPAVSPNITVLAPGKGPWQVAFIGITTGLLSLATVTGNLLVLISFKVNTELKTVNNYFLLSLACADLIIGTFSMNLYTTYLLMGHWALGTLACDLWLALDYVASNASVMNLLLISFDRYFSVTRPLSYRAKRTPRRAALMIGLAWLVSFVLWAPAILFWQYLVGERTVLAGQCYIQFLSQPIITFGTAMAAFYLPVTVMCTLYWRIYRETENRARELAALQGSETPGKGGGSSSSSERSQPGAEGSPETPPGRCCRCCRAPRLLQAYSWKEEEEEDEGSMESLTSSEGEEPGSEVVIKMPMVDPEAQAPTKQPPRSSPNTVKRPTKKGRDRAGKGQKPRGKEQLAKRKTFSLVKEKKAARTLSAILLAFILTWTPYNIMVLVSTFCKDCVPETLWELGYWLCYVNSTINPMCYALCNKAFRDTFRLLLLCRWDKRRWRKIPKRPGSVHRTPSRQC
# Experiment: mAChR M1 cell-based functional assay: calcium mobilization, positive allosteric modulator mode (increase in EC20 acetylcholine response)
# Settings: for EC50: read-out: Human M1 EC50; for Emax: read-out: Human M1 Emax (%)
# Text: a. Cell Lines Expressing Muscarinic Acetylcholine Receptors
# Chinese hamster ovary (CHO-K1) cells stably expressing rat (r)M1 were purchased from the American Type Culture Collection and cultured according to their indicated protocol. CHO cells stably expressing human (h)M2, hM3, and hM5 were described previously (Levey, et al., 1991); hMi and hM4 cDNAs were purchased from Missouri S&T cDNA Resource; rM4 cDNA was provided by T. I. Bonner (National Institutes of Health, Bethesda, Md.). rM2 and rM3 were cloned from a rat brain cDNA library and sequence verified. hMi, rM2, rM3, hM4, and rM4 cDNAs were used to stably transfect CHO-K1 cells purchased from the American Type Culture Collection using Lipofectamine2000. To make stable rM2, hM2, rM3, hM4, and rM4 cell lines for use in calcium mobilization assays, these cells also were stably transfected with a chimeric G-protein (Gqi5) (provided by B. R. Conklin, University of California, San Francisco) using Lipofectamine 2000. rMi, hMi, rM3, hM3, rM5, and hM5 cells were grown in Ham's F-12 medium containing 10% heat-inactivated fetal bovine serum (FBS), 20 mM HEPES, and 50 μg/mL G418 sulfate. rM2-Gqi5, hM2-Gqi5, and hM4-Gqi5 cells were grown in the same medium also containing 500 μg/mL Hygromycin B. Stable rM4-Gqi5 cells were grown in DMEM containing 10% heat-inactivated FBS, 20 mM HEPES, 400 μg/mL G418 sulfate, and 500 μg/mL Hygromycin B.
# b. Cell-Based Functional Assay of Muscarinic Acetylcholine Receptor Activity
# For high throughput measurement of agonist-evoked increases in intracellular calcium, CHO-K1 cells stably expressing muscarinic receptors were plated in growth medium lacking G418 and hygromycin at 15,000 cells/20 μL/well in Greiner 384-well black-walled, tissue culture (TC)-treated, clear-bottom plates (VWR). Cells were incubated overnight at 37° C. and 5% CO2. The next day, cells were washed using an ELX 405 (BioTek) with four washes (80 μL) of assay buffer then aspirated to 20 μL. Next, 20 μL of 16 μM Fluo-4/acetoxymethyl ester (Invitrogen, Carlsbad, Calif.) prepared as a 2.3 mM stock in DMSO and mixed in a 1:1 ratio with 10% (w/v) Pluronic F-127 and diluted in assay buffer was added to the wells and the cell plates were incubated for 50 min at 37° C. and 5% CO2. Dye was removed by washing with the ELX 405 (four […], washes of assay buffer) then aspirated to 20 μL. Compound master plates were formatted in an 11 point CRC format (1:3 dilutions) in 100% DMSO with a starting concentration of 10 mM using the BRAVO liquid handler (Agilent). Test compound CRCs were then transferred to daughter plates (240 nL) using the Echo acoustic plate reformatter (Labcyte, Sunnyvale, Calif.) and then diluted into assay buffer (40 μL) to a 2× stock using a Thermo Fisher Combi (Thermo Fisher Scientific, Waltham, Mass.).
# Calcium flux was measured using the Functional Drug Screening System (FDSS) 6000 (Hamamatsu Corporation, Tokyo, Japan) as an increase in the fluorescent static ratio. Compounds were applied to cells (20 μL, 2×) using the automated system of the FDSS 6000 at 4 s into the 300 s protocol and the data were collected at 1 Hz. At 144 s into the 300s protocol, 10 μL of an EC20 concentration of the muscarinic receptor agonist acetylcholine was added (5×), followed by the addition of 12 μL an EC80 concentration of acetylcholine at the 230 s time point (5×). Agonist activity was analyzed as a concentration-dependent increase in calcium mobilization upon compound addition. Positive allosteric modulator activity was analyzed as a concentration-dependent increase in the EC20 acetylcholine response. Antagonist activity was analyzed as a concentration-dependent decrease in the EC80 acetylcholine response. Concentration-response curves were generated using a four-parameter logistical equation in XLfit curve fitting software (IDBS, Bridgewater, N.J.) for Excel (Microsoft, Redmond, Wash.) or Prism (GraphPad Software, Inc., San Diego, Calif.).
Compound,"EC50 (Table 2, human M1)","Emax (Table 2, human M1)",Emax
"Cn1cc(-c2cc(F)c(Cc3cc(C(=O)N[C@H]4CCCCC[C@@H]4O)nc4ccsc34)c(F)c2)cn1 [Compound 61, 7-[[2,6-difluoro-4-(1-methylpyrazol-4-yl)phenyl]methyl]-N-[(1S,2S)-2-hydroxycycloheptyl]thieno[3,2-b]pyridine-5-carboxamide]",> 10000 nM,64.8%,–
"Cn1cc(-c2ccc(Cc3cc(C(=O)N[C@H]4COCC[C@@H]4O)nc4ccsc34)cn2)cn1 [Compound 62, N-[(3S,4S)-4-hydroxytetrahydropyran-3-yl]-7-[[6-(1-methylpyrazol-4-yl)-3-pyridyl]methyl]thieno[3,2-b]pyridine-5-carboxamide]",> 10000 nM,41.2%,–
"Cc1ccc(Cc2cc(C(=O)NC34CC5CC(CC(O)(C5)C3)C4)nc3ccsc23)cn1 [Compound 63, N-(3-hydroxy-1-adamantyl)-7-[(6-methyl-3-pyridyl)methyl]thieno[3,2-b]pyridine-5-carboxamide]",3990 nM,87%,–
"Cc1ccc(Cc2cc(C(=O)NC3C4CC5C[C@H]3CC(O)(C5)C4)nc3ccsc23)cn1 (stereo partly drawn) [Compound 64, N-[(1S)-5-hydroxy-2-adamantyl]-7-[(6-methyl-3-pyridyl)methyl]thieno[3,2-b]pyridine-5-carboxamide]",962 nM,70.7%,–
"Cc1ccc(Cc2cc(C(=O)Nc3n[nH]c4ccccc34)nc3ccsc23)cn1 [Compound 65, N-(1H-indazol-3-yl)-7-[(6-methyl-3-pyridyl)methyl]thieno[3,2-b]pyridine-5-carboxamide]",1720 nM,37.3%,–
"Cc1ccc(Cc2cc(C(=O)NC3CCCNC3=O)nc3ccsc23)cn1 (centres unmarked) [Compound 66, 7-[(6-methyl-3-pyridyl)methyl]-N-(2-oxo-3-piperidyl)thieno[3,2-b]pyridine-5-carboxamide]",7410 nM,93%,–
"Cc1ccc(Cc2cc(C(=O)NC3CCCCNC3=O)nc3ccsc23)cn1 (centres unmarked) [Compound 67, 7-[(6-methyl-3-pyridyl)methyl]-N-(2-oxoazepan-3-yl)thieno[3,2-b]pyridine-5-carboxamide]",2780 nM,92.7%,–
"Cc1ccc(Cc2cc(C(=O)NC3C(=O)Nc4ccccc43)nc3ccsc23)cn1 (centres unmarked) [Compound 68, 7-[(6-methyl-3-pyridyl)methyl]-N-(2-oxoindolin-3-yl)thieno[3,2-b]pyridine-5-carboxamide]",9700 nM,22.8%,–
"Cc1ccc(Cc2cc(C(=O)Nc3cc(C)n[nH]3)nc3ccsc23)cn1 [Compound 69, N-(3-methyl-1H-pyrazol-5-yl)-7-[(6-methyl-3-pyridyl)methyl]thieno[3,2-b]pyridine-5-carboxamide]",6820 nM,80.3%,–
"Cc1ccc(Cc2cc(C(=O)Nc3c[nH]cn3)nc3ccsc23)cn1 [Compound 70, N-(1H-imidazol-4-yl)-7-[(6-methyl-3-pyridyl)methyl]thieno[3,2-b]pyridine-5-carboxamide]",> 10000 nM,62.4%,–
"O=C(N[C@@H]1CCC[C@H]1O)c1cc(Cc2ccc(-n3cccn3)cc2)c2sccc2n1 [Compound 71, N-[(1R,2R)-2-hydroxycyclopentyl]-7-[(4-pyrazol-1-ylphenyl)methyl]thieno[3,2-b]pyridine-5-carboxamide]",80.3 nM,92.7%,–
"O=C(NC1CCCCC1)c1cc(Cc2ccc(-n3cccn3)cc2)c2sccc2n1 [Compound 72, N-cyclohexyl-7-[(4-pyrazol-1-ylphenyl)methyl]thieno[3,2-b]pyridine-5-carboxamide]",> 10000 nM,84.5%,–
"O=C(N[C@@H]1CCCC[C@H]1O)c1cc(Cc2ccc(-n3cccn3)cc2)c2sccc2n1 [Compound 73, N-[(1R,2R)-2-hydroxycyclohexyl]-7-[(4-pyrazol-1-ylphenyl)methyl]thieno[3,2-b]pyridine-5-carboxamide]",50.1 nM,87.9%,–
"O=C(N[C@@H]1CCOC[C@H]1O)c1cc(Cc2ccc(-n3cccn3)cc2)c2sccc2n1 [Compound 74, N-[(3S,4R)-3-hydroxytetrahydropyran-4-yl]-7-[(4-pyrazol-1-ylphenyl)methyl]thieno[3,2-b]pyridine-5-carboxamide]",12.2 nM,84.9%,–
"O=C(N[C@@H]1COCC[C@H]1O)c1cc(Cc2ccc(-n3cccn3)cc2)c2sccc2n1 [Compound 75, N-[(3R,4R)-4-hydroxytetrahydropyran-3-yl]-7-[(4-pyrazol-1-ylphenyl)methyl]thieno[3,2-b]pyridine-5-carboxamide]",22.1 nM,90.1%,–
"CO[C@@H]1CCCC[C@H]1NC(=O)c1cc(Cc2ccc(-n3cccn3)cc2)c2sccc2n1 [Compound 76, N-[(1R,2R)-2-methoxycyclohexyl]-7-[(4-pyrazol-1-ylphenyl)methyl]thieno[3,2-b]pyridine-5-carboxamide]",739 nM,67.6%,–
"O=C(N[C@@H]1CCCCC[C@H]1O)c1cc(Cc2ccc(-n3cccn3)cc2)c2sccc2n1 [Compound 77, N-[(1R,2R)-2-hydroxycycloheptyl]-7-[(4-pyrazol-1-ylphenyl)methyl]thieno[3,2-b]pyridine-5-carboxamide]",136 nM,84.8%,–
"O=C(NC1CCCNC1=O)c1cc(Cc2ccc(-n3cccn3)cc2)c2sccc2n1 (centres unmarked) [Compound 78, N-(2-oxo-3-piperidyl)-7-[(4-pyrazol-1-ylphenyl)methyl]thieno[3,2-b]pyridine-5-carboxamide]",310 nM,87.2%,–
"O=C(NC1CCCCNC1=O)c1cc(Cc2ccc(-n3cccn3)cc2)c2sccc2n1 (centres unmarked) [Compound 79, N-(2-oxoazepan-3-yl)-7-[(4-pyrazol-1-ylphenyl)methyl]thieno[3,2-b]pyridine-5-carboxamide]",397 nM,70.5%,–
"O=C(c1cc(Cc2ccc(-n3cccn3)cc2)c2sccc2n1)N1[C@@H]2CC[C@H]1CC(O)C2 (stereo partly drawn) [Compound 80, [(1S,5R)-3-hydroxy-8-azabicyclop[3.2.1]octan-8-yl]-[7-[(4-pyrazol-1-ylphenyl)methyl]thieno[3,2-b]pyridin-5-yl]methanone]",> 10000 nM,–,65.9%
"O=C(c1cc(Cc2ccc(-n3cccn3)cc2)c2sccc2n1)N1CCC[C@@H](O)C1 [Compound 81, [(3R)-3-hydroxy-1-piperidyl]-[7-[(4-pyrazol-1-ylphenyl)methyl]thieno[3,2-b]pyridin-5-yl]methanone]",> 10000 nM,33%,–
"CC1(O)CCN(C(=O)c2cc(Cc3ccc(-n4cccn4)cc3)c3sccc3n2)CC1 [Compound 82, (4-hydroxy-4-methyl-1-piperidyl)-[7-[(4-pyrazol-1-ylphenyl)methyl]thieno[3,2-b]pyridin-5-yl]methanone]",> 10000 nM,70.4%,–
